In patent US8623909B2, “Prophylactic/therapeutic agents for lifestyle-related diseases” (priority 2008, dated 2014):
Marks after values point to notes of the source that are not given here.

Legend:
PSA mRNA in LNCaP cells = assay: PSA mRNA expression level in LNCaP cells (real-time PCR); format: cell-based, human; conditions: 10^−5M, 24 hours, control (DMSO) 1.0
Method: (§1) 1) Extraction of Total RNA
(§2) After respectively culturing the LNCaP cells and NIH-3T3-L1 cells co-transfected in 1) to 3) above in 6-well plates, the cells were cultured for 24 hours in EMEM or RPMI 1640 containing 10% fetal calf serum treated with dextran-charcoal and a test compound (dissolved in a small amount of DMSO). Subsequently, total RNA was respectively extracted using Isogen (Wako Pure Chemical Industries).
(§3) 5 μg aliquots of each total RNA obtained in 1) above were reverse-transcribed to first strand cDNA using a Superscript III Kit (Invitrogen) and brought to a final volume of 20 μL. Real-time PCR was carried out using LightCycler FastStart DNA Master SYBR Green I (Roche Diagnostic) in order to quantify expression of PSA mRNA in LNCaP cells and UCP-1 mRNA in NIH-3T3-L1 cells. PCR was carried out under the following conditions in 20 μL of reaction mixture: 50 cycles consisting of denaturing for 3 seconds at 95° C., annealing for 10 seconds at 60° C. and elongating for 25 seconds at 72° C. β-actin mRNA was also simultaneously amplified for use as an internal standard. Real-time PCR value for each transcription product were calculated as a relative ratio to β-actin.

[1] = system: UCP-1 mRNA in NIH-3T3-L1 cells; assay: UCP-1 mRNA expression level in NIH-3T3-L1 cells (real-time PCR); format: cell-based, mouse; conditions: 10^−5M, 24 hours, control (DMSO) 1.0
Method: as §1, §2, §3

B6 mice on high-fat diet [2] = assay: High-fat diet B6 mice, 16 weeks (body weight, serum glucose, serum insulin, food intake, visceral fat); format: in vivo, mouse; conditions: 10 mg/kg s.c. every other day
Method: (§4) 9-week-old B6 mice were divided into a control group, high-fat diet group and high-fat diet+compound of formula (Ia) group of 10 animals each, and housed and observed for 16 weeks. During this period, the compound of formula (Ia) was subcutaneously injected at 10 mg/kg every other day, body weights were measured once a week, and food intake was measured once every 4 weeks.
After 16 weeks, the body weights, bone mineral densities, fat distributions and exercise levels of the mice were measured, followed by collecting blood samples and finally sacrificing the animals and collecting their organs. The average value of body weight, serum glucose concentration and serum insulin concentration of each group after 16 weeks are shown in the following Table 17.

B6 mice on high-fat diet [3] = assay: Glucose tolerance test in high-fat diet B6 mice; format: in vivo, mouse; conditions: high-fat diet mice after 16 weeks, glucose 1 g/kg
Method: as §4
In addition, glucose tolerance tests were also carried out on the mice after housing for 16 weeks. The mice were divided into groups of 5 mice each, injected at 1 g/kg, and glucose value was then measured over time.

GFP-AR [4] = molecular target: T1, GFP-AR (Homo sapiens, UniProt P10275); assay: Subnuclear localization of GFP-AR in LNCaP cells; format: cell-based; design: expressed in transfected cells; host or cells: LNCaP cells; conditions: 10^−5 M, observed 3 hours later, FIG. 2
T1 sequence (P10275 1-920): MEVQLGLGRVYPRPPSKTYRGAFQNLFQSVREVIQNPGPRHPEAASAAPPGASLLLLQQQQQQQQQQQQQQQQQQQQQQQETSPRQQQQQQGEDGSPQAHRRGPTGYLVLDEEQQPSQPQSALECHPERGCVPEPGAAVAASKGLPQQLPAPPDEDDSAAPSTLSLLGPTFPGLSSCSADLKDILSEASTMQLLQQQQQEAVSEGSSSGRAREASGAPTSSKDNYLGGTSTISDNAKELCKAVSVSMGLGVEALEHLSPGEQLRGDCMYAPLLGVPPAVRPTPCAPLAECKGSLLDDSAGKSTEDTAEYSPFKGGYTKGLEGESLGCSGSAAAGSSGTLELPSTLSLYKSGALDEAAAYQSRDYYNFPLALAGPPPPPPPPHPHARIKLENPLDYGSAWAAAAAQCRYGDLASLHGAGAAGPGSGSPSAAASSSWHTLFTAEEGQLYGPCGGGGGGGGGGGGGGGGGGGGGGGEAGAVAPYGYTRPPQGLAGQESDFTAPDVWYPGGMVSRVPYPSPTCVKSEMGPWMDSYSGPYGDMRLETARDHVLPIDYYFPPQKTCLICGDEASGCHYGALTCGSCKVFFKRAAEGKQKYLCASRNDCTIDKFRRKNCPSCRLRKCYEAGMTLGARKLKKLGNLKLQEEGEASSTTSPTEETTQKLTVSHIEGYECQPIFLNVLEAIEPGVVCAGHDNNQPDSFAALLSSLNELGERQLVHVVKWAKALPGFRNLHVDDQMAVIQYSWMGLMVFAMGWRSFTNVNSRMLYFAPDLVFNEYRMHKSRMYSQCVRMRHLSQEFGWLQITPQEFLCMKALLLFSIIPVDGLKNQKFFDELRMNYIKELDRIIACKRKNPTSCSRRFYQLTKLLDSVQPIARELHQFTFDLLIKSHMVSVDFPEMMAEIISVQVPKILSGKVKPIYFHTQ

GFP-AR [5] = molecular target: T1, GFP-AR; assay: Subnuclear localization of GFP-AR in NIH-3T3-L1 cells; format: cell-based, mouse; design: expressed in transfected cells; host or cells: NIH-3T3-L1 cells; conditions: 10^−5 M, FIG. 4

CC(=O)[C@H]1CCC2C3CCc4c(C)cccc4C3CC[C@@]21C (stereo partly shown) [Compound of formula (Ia)]
PSA mRNA (relative ratio to β-actin mRNA) (PSA mRNA in LNCaP cells): 0.8 | UCP-1 mRNA (relative ratio to β-actin mRNA) [1]: 2.1* | Body weight versus high-fat diet group (in words) (B6 mice on high-fat diet [2]; 16 weeks): significantly lower than in the high-fat diet group | Increase of serum glucose and serum insulin concentrations due to the high-fat diet (in words) (B6 mice on high-fat diet [2]; 16 weeks): significantly inhibited | Accumulation of visceral fat (in words) (B6 mice on high-fat diet [2]; 16 weeks, FIG. 6): roughly the same as that of the rat of the ordinary diet group | Serum insulin concentration (average) (B6 mice on high-fat diet [2]; after 16 weeks, high-fat diet alone 0.46, ordinary diet 0.13): 0.27^# ng/mL | Body weight (average) (B6 mice on high-fat diet [2]; after 16 weeks, high-fat diet alone 36.6, ordinary diet 30.7): 34.9^### g | Serum glucose concentration (average) (B6 mice on high-fat diet [2]; after 16 weeks, high-fat diet alone 113.2, ordinary diet 75): 82.2^## mg/dL | Glucose value in glucose tolerance test (B6 mice on high-fat diet [3]; 0 min after injection): 82.2^## mg/dL | Glucose value in glucose tolerance test (B6 mice on high-fat diet [3]; 15 min after injection): 293.6 mg/dL | Glucose value in glucose tolerance test (B6 mice on high-fat diet [3]; 30 min after injection): 327.6* mg/dL | Glucose value in glucose tolerance test (B6 mice on high-fat diet [3]; 60 min after injection): 249.4 mg/dL | Glucose value in glucose tolerance test (B6 mice on high-fat diet [3]; 90 min after injection): 262.0* mg/dL | Glucose value in glucose tolerance test (B6 mice on high-fat diet [3]; 120 min after injection): 163.0 mg/dL | GFP-AR nuclear translocation and foci (dots) formation (GFP-AR [4]): clear foci (dots) were not formed | GFP-AR nuclear translocation and foci (dots) formation (GFP-AR [5]): formed the subnuclear foci (dots)
